Results on 14 compounds are retold here after ChEMBL document CHEMBL1138857, “Quinol-4-ones as steroid A-ring mimetics in nonsteroidal dissociated glucocorticoid agonists” (J Med Chem, 2006).

As a reminder, the IC50 is the point on the concentration scale where inhibition reaches its midpoint. A lower IC50 goes with higher potency. For orientation: EC50 means the midpoint of the concentration-response curve.

Where only a bound is given, the exact number is not on record here.

In test [1] the target is T1, Progesterone receptor (Homo sapiens, UniProt P06401).
T1 sequence (P06401 whole entry): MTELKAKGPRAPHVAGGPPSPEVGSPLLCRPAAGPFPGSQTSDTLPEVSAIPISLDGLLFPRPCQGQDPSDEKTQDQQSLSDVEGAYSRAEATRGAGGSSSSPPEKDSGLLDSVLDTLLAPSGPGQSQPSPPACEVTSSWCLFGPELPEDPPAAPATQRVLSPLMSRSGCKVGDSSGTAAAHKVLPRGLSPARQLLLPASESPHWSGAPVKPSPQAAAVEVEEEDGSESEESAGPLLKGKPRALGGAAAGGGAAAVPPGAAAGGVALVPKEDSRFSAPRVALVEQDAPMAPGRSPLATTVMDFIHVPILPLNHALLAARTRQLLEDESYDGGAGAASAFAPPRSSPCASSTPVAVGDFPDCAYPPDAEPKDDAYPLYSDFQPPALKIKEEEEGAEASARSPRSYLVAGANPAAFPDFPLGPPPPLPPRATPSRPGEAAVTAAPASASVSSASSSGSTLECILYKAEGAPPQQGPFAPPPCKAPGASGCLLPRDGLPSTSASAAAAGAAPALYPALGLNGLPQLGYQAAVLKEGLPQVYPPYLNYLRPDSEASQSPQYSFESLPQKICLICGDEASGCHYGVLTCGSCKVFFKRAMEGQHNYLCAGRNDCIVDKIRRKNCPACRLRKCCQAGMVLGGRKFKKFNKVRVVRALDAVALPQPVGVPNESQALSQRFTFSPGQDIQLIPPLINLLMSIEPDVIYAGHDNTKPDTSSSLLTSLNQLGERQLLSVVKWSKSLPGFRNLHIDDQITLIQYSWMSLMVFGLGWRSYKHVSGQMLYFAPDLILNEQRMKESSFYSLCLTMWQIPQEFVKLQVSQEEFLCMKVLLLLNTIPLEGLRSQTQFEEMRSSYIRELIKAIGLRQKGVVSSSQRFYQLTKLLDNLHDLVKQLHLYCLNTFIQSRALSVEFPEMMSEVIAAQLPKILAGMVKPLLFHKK
The test can be described thus: Inhibition of tetramethylrhodamine labeled RU486 binding to PR by FP assay.

For test [2], the target named is T2, Mineralocorticoid receptor (Homo sapiens, UniProt P08235).
T2 sequence (P08235 whole entry): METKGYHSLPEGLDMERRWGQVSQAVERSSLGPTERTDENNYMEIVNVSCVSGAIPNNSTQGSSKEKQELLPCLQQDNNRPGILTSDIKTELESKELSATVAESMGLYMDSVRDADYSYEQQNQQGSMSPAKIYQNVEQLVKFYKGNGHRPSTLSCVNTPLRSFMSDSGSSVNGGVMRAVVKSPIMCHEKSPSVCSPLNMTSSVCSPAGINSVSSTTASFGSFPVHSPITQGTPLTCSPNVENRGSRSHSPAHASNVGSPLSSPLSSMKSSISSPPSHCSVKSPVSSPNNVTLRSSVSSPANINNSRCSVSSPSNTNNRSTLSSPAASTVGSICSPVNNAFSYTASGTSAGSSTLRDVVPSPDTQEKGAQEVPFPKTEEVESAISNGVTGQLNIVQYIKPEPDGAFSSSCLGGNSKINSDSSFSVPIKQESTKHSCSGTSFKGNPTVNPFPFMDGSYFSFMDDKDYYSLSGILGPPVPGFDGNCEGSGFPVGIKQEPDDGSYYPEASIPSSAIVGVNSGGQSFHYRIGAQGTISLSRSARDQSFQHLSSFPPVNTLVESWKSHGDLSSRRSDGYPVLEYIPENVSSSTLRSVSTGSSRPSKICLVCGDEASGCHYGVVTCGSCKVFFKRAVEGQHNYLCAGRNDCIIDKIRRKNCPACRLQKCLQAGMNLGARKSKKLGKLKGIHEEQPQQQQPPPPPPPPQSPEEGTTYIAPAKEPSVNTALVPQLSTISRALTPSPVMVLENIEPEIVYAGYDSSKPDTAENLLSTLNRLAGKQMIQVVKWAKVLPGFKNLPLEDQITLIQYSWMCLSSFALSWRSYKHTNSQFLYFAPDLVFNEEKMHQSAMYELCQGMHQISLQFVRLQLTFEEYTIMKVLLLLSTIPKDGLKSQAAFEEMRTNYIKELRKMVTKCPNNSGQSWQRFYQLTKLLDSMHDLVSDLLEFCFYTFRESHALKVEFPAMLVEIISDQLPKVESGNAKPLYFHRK
The test can be described thus: Inhibition of tetramethylrhodamine labeled dexamethasone binding to MR by FP assay.

The test system of test [3] is HFF. Kind of test: Inhibition of IL1-stimulated IL6 production in HFF cells. As to conditions: Homo sapiens. Format: functional, cell-based.
Test [4] concerns HFF. Kind of test: Inhibition of IL1-stimulated IL6 production in HFF cells relative to Dexamethasone. Format: functional, Homo sapiens.
For test [5], the system named is HFF. Kind of test: Induction of aromatase activity in HFF cells assessed as production of beta estradiol by aromatase assay relative to Dexamethasone. Format: functional, Homo sapiens.
For test [6], the system named is HeLa. The test can be described thus: Activation of MMTV in HeLa cells measured by luciferase activity. As to conditions: Homo sapiens. Format: functional, cell-based.
In test [7] the test system is HeLa. Kind of test: Activation of MMTV in HeLa cells measured by luciferase activity relative to Dexamethasone. Type of test: functional, Homo sapiens.
Test [8] deals with Mus musculus. Kind of test: Inhibition of LPS-stimulated TNFalpha production in BALB/c mouse at 10 mg/kg, po. Format: functional.
In test [9] the target is T3, Glucocorticoid receptor (Homo sapiens, UniProt P04150).
T3 sequence (P04150 whole entry): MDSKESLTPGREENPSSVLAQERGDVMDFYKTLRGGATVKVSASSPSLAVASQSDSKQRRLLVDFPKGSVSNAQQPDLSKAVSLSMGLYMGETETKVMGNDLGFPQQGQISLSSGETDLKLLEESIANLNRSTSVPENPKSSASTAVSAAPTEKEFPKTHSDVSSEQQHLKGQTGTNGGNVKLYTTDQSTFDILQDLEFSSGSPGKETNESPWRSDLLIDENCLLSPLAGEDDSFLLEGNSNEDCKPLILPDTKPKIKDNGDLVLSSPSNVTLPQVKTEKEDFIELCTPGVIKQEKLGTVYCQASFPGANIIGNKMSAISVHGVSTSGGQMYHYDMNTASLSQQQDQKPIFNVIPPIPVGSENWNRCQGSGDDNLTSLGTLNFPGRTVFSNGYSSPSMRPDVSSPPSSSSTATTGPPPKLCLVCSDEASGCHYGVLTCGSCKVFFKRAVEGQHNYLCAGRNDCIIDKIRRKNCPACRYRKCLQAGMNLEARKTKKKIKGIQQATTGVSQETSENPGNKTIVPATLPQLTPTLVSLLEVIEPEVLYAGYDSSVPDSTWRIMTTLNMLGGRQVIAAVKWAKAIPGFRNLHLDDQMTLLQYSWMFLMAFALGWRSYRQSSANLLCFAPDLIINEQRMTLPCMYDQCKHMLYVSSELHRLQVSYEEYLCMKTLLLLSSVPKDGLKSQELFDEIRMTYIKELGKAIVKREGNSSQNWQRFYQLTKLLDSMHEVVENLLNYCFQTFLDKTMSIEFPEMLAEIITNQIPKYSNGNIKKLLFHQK

The subject of test [10] is HFF. The test can be described thus: Induction of aromatase activity in HFF cells assessed as production of beta estradiol by aromatase assay. Type of test: functional, cell-based. As to conditions: Homo sapiens.
The species entered for test [11] is Homo sapiens. Kind of test: Ratio of IC50 for GR to PR.
For test [12], the system named is Mus musculus. Kind of test: Inhibition of LPS-stimulated TNFalpha production in BALB/c mouse at 3 mg/kg, po. As to conditions: read-out: Inhibition.

Take `Cc1ccc(F)cc1C(C)(C)CC(O)(Cn1ccc(=O)c2ccccc21)C(F)(F)F` (stereo not given): the IC50 was 240 nM in test [1], 120 nM in test [2], 34 nM in [3] and 10 nM in test [9]. Besides, the Efficacy is reported as 66% in test [4], 22% in test [5] and 2% in test [7]. This compound also gave an EC50 in test [6] greater than 2000 nM. Further, the inhibition in vivo at 10 mg/kg in test [8] is 50%.
With `Cc1ccccc1C(C)(C)CC(O)(Cn1ccc(=O)c2ccccc21)C(F)(F)F` (stereo not given), the IC50 was 240 nM in test [1], 150 nM in test [2], 61 nM in [3] and 22 nM in [9]. Besides, the Efficacy in [4] is recorded as 63%; in test [5], 29%; in [7], 1%. Further, the 50% effective concentration (EC50) in test [10] and in test [6] was greater than 2000 nM throughout. The inhibition in vivo at 10 mg/kg in [8] was determined as 36%.
As to `Cc1ccc(F)cc1C(C)(C)CC(O)(Cn1cc(C)c(=O)c(C)c1)C(F)(F)F` (stereo not given), the results for the IC50 in [3] and in [9] were 70 nM and 125 nM, respectively. Also, the figures for the Efficacy in [4] and in test [5] were 71% and 20%, respectively. The EC50 in [10] is greater than 2000 nM. In addition, in test [8], the inhibition in vivo at 10 mg/kg was 48%.
For `COc1ccc(F)cc1C(C)(C)CC(O)(Cn1ccc(=O)c2ccccc21)C(F)(F)F` (stereo not given), the IC50 turned out to be 475 nM in [1], 120 nM in test [2], 27 nM in test [3] and 10 nM in test [9]. Also, the Efficacy is 82% in test [4], 67% in test [5] and 10% in test [7]. Also, the EC50 in test [10] is 220 nM; in test [6] it was greater than 2000 nM. Besides, the Ratio IC50 in test [11] was less than 50.
For the compound `C[C@]12C=CC(=O)C=C1CC[C@@H]1[C@@H]2[C@@H](O)C[C@@]2(C)[C@H]1CC[C@]2(O)C(=O)CO` [PREDNISOLONE], in test [3], the IC50 was found to be 6.6 nM. Further, the Efficacy in test [4] was 96%; in test [5] it was 92%; in test [7], 91%. Besides, the EC50 came out at 19 nM in [10] and 16 nM in test [6]. Also, the inhibition in vivo at 3 mg/kg in [12] turned out to be 84%.
For the compound `CC(C)(CC(O)(Cn1ccc(=O)c2ccccc21)C(F)(F)F)c1cc(F)ccc1O` (stereo not given), the IC50 in test [1] was 960 nM; in [2] it was 580 nM; in [3], 6 nM; in test [9] it was 5 nM. The results for the Efficacy in test [4], in test [5] and in [7] were 92%, 74% and 20%, respectively. The EC50 came out at 14 nM in test [10] and 37 nM in test [6]. The inhibition in vivo at 10 mg/kg in [8] was determined as 55%.
As for `COc1ccc(F)cc1C(C)(C)CC(O)(CN1CCC(=O)c2ccccc21)C(F)(F)F` (stereo not given), the IC50 in [1] was determined as 90 nM; in test [2] it was 130 nM; in test [3] it was 110 nM; in test [9], 4 nM. The Efficacy in [4] was 72%. The Ratio IC50 in [11] was less than 50.
As for `Cc1ccc(F)cc1C(C)(C)CC(O)(Cn1ccc(=O)c2cnccc21)C(F)(F)F` (stereo not given), the IC50 came out at 47 nM in test [3] and 48 nM in [9]. The Efficacy in [4] is reported as 59%; in test [5] it was 14%. The EC50 in test [10] is greater than 2000 nM. In test [8], this compound yielded an inhibition in vivo at 10 mg/kg of 58%.
Consider `COc1ccc(F)cc1C(C)(C)CC(O)(Cn1cc(C)c(=O)c(C)c1)C(F)(F)F` (stereo not given), for which the IC50 in test [1] was greater than 2000 nM; in [2] it was 1900 nM; in test [3] it was 53 nM; in test [9], 120 nM. In addition, the Efficacy was found to be 87% in test [4], 77% in [5] and 3% in test [7]. In addition, the concentration for a half-maximal effect (EC50) is 170 nM in [10] and greater than 2000 nM in test [6].
Consider `COc1ccc(F)cc1C(C)(C)CC(O)(CN1CCOc2ccccc21)C(F)(F)F` (stereo not given), for which the IC50 is 640 nM in test [1], 310 nM in test [2], 600 nM in test [3] and 15 nM in test [9]. The compound also came in with an Efficacy in test [4] of 25%. For the same compound, the Ratio IC50 in test [11] is less than 50.
Regarding `Cc1cn(CC(O)(CC(C)(C)c2cccc3c2OCC3)C(F)(F)F)cc(C)c1=O` (stereo not given), the IC50 in [3] is 39 nM; in [9] it was 34 nM. Besides, the Efficacy is listed as 77% in test [4] and 26% in test [5]. The inhibition in vivo at 10 mg/kg in [8] stood at 49%.
As to `COc1ccc(F)cc1C(C)(C)CC(O)(CN1C[C@@H](C)C(=O)[C@@H](C)C1)C(F)(F)F` (stereo not given in full), the IC50 in [1] is greater than 2000 nM; in [2], 430 nM; in [3] it was 75 nM; in test [9], 10 nM. The values for the Efficacy in test [4] and in test [5] were 89% and 93%, respectively. In addition, the EC50 in [10] is 240 nM. In addition, the Ratio IC50 in test [11] is greater than 75.
Turning to `CC(C)(CC(O)(Cn1ccc(=O)c2ccccc21)C(F)(F)F)c1cccc2c1OCC2` (stereo not given), the IC50 was found to be 48 nM in test [1], 98 nM in test [2], 11 nM in [3] and 4 nM in test [9]. Besides, the Efficacy is on record as 86% in test [4] and 60% in test [5]. Moreover, the inhibition in vivo at 10 mg/kg in test [8] was 49%.
Consider `COc1ccc(F)cc1C(C)(C)CC(O)(CN1C[C@@H](C)O[C@@H](C)C1)C(F)(F)F` (stereo not given in full), for which the IC50 is greater than 2000 nM in [1], 450 nM in [2], 270 nM in [3] and 38 nM in test [9]. This compound registered an Efficacy in test [4] of 72%. In addition, the Ratio IC50 in test [11] was greater than 75.
